From PubChem BioAssay (NCI)
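Where inhibition never reached the appropriate level, the endpoint shown equals the highest concentration tested. Otherwise, values were interpolated linearly from a five-concentration, 48-hour dose response in 96-well plates. GI50: concentration for 50% inhibition of growth. Definition used: TGI = concentration required for complete inhibition of growth.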

Tests used:
Experiment in all cases: inhibition of tumour cell growth, NCI panel, 48 h
SK-MEL-5 melanoma = tested on: SK-MEL-5 melanoma
ACHN renal = tested on: ACHN renal
CAKI-1 renal = tested on: CAKI-1 renal
NCI-H23 lung = tested on: NCI-H23 lung
SNB-75 CNS = tested on: SNB-75 CNS
LOX IMVI melanoma = tested on: LOX IMVI melanoma
A498 renal = tested on: A498 renal
HCT-15 colon = tested on: HCT-15 colon
NCI/ADR-RES ovarian = tested on: NCI/ADR-RES ovarian
MDA-MB-231 breast = tested on: MDA-MB-231 breast

Structure (SMILES)	TGI (SK-MEL-5 melanoma) [µM]	TGI (ACHN renal) [µM]	TGI (CAKI-1 renal) [µM]	TGI (NCI-H23 lung) [µM]	TGI (SNB-75 CNS) [µM]	TGI (LOX IMVI melanoma) [µM]	TGI (A498 renal) [µM]	TGI (HCT-15 colon) [µM]	TGI (NCI/ADR-RES ovarian) [µM]	TGI (MDA-MB-231 breast) [µM]	GI50 (NCI/ADR-RES ovarian) [µM]	GI50 (ACHN renal) [nM]	GI50 (CAKI-1 renal) [nM]	GI50 (NCI-H23 lung) [nM]	GI50 (SNB-75 CNS) [nM]	GI50 (LOX IMVI melanoma) [nM]	GI50 (MDA-MB-231 breast) [nM]	GI50 (A498 renal) [nM]	GI50 (HCT-15 colon) [nM]
CC12CCc3ccccc3C1=NNC(=O)C2 (configuration not stated)	> 100	> 100	> 100	> 100	> 100	> 100	> 100	> 100	–	–	–	–	–	–	–	–	–	–	–
Cc1cc(C)n(-c2nc(C)c(CCO)c(=O)[nH]2)n1	> 100	> 100	–	> 100	> 100	> 100	–	> 100	> 100	> 100	–	–	–	–	–	–	–	–	–
CCCCCCCCCCCC[N+]12CC[N+](C)(CC1)CC2	> 100	> 100	30.9	60.9	37.1	43	–	–	–	–	–	–	–	–	–	–	–	–	–
COc1ccc([C@H]2CC3C(=O)N(c4ccc(OC)cc4)C(=O)C3c3[nH]c4ccccc4c32)cc1 (some centres not stated)	> 100	> 100	> 100	> 100	83.7	> 100	> 100	> 100	–	–	–	–	–	–	–	–	–	–	–
COC(=O)C(CCC1(C)OCCO1)=[N+]=[N-]	> 100	> 100	–	> 100	> 100	> 100	> 100	> 100	–	–	–	–	–	–	–	–	–	–	–
Cc1ccnc(Nc2[nH]c(C(=O)c3ccc(Cl)cc3)c(N)c2C(=S)Nc2ccccc2)c1	–	55.8	> 100	46.5	39.7	28.3	36.9	34.2	11.1	31.6	–	–	–	–	–	–	–	–	–
O=S(=O)(c1ccccc1)c1ccc(-c2nc(-c3ccc4c(c3)Sc3ccccc3S4)cs2)cc1	–	> 100	> 100	36.1	25.3	> 100	–	> 100	–	> 100	–	–	–	–	–	–	–	–	–
COc1ccc(/C=C/C(=O)c2ccc(Br)cc2)cc1	> 100	> 100	> 100	> 100	> 100	–	> 100	> 100	> 100	> 100	–	–	–	–	–	–	–	–	–
CN(C)CCC[N+]1=Nc2cccc3cccc(c23)N1	34.2	> 100	> 100	> 100	> 100	> 100	92.6	> 100	–	–	–	–	–	–	–	–	–	–	–
COc1ccc2c3/c(=C\c4ccc(N(C)C)cc4)c4ccccc4n3[n+](C)c2c1	–	–	2.51	0.722	4.18	> 100	7.37	> 100	> 55.8	0.385	4.31	404	723	63.9	578	94	35.2	371	475
CCOC(=O)c1nc2cc(Cl)ccc2[nH]c1=O	> 100	> 100	> 100	> 100	–	> 100	> 100	> 100	> 100	> 100	–	–	–	–	–	–	–	–	–
CC(C)(C)OC(=O)N1N=CCC1c1ccccc1 (configuration not stated)	> 100	> 100	> 100	> 100	> 100	> 100	> 100	> 100	> 100	–	–	–	–	–	–	–	–	–	–
O=C(NC1=C(Cl)C(=O)c2ccccc2C1=O)C(=O)C(C(=O)c1ccc2ccccc2c1)C1OC(=O)c2ccccc21 (configuration not stated)	1.96	21.1	23.2	13.4	13.6	11.2	18.4	18	–	–	–	–	–	–	–	–	–	–	–
O=C1CC(c2ccccc2)n2c(nc3ccccc32)N1 (configuration not stated)	42.8	> 100	> 100	> 100	–	> 100	> 100	> 100	> 100	> 100	–	–	–	–	–	–	–	–	–
Cc1ccc(NC(=O)C2C3CCC(O3)C2C(=O)O)cc1 (configuration not stated)	> 100	> 100	> 100	> 100	> 100	> 54.8	> 75.7	> 65.3	–	–	–	–	–	–	–	–	–	–	–
CCN(C(=O)N[C@H](C(=O)N[C@@H](CSC)C(=O)N[C@@H](C)C(=O)OC)C(C)C)c1ccccc1	30.8	28.9	36.3	33.4	27.8	23.5	–	36.2	> 100	29	–	–	–	–	–	–	–	–	–
Cc1nn2c(c1C#N)NNc1c-2sc(=N)nnc1=O	> 100	–	> 100	> 100	–	–	–	–	–	–	–	–	–	–	–	–	–	–	–
